Like-named read-outs stand apart in the source and are kept apart here.
Experiments:
[1] = target: T1, truncated XIAP containing only BIR1, BIR2, and BIR3 domains (Homo sapiens, UniProt P98170); assay: Fluorescent polarization assay (Bir binding); conditions: competition with 2 nM fluorescein labeled AVPI peptide, room temperature, 1 hour
T1 construct: truncated XIAP containing only BIR1, BIR2, and BIR3 domains
Experimental: Increasing concentrations of Smac compounds are incubated with 2 nM of labeled peptide (fluorescein labeled 10 mer peptide with AVPI 4 amino acids at its N terminus-Alexa Fluor 488) and truncated XIAP containing only BIR1, BIR2, and BIR3 domains at room temperature for 1 hour. Fluorescence reading, indicative of the bound portion of the labeled peptide, is measured in milipolarization units (mP). The more compound added, less fluorescein labeled peptide bind to the protein due to the competitive binding and less fluorescence signal is released.
Based on this principle, we obtain the Ki value that evaluates compound's binding affinity.

Caspase3 in Hela S100 = assay: In-vitro caspase-3 activation assay in Hela S100 extract; assay type: biochemical; conditions: 100 nM compound, Hela S100, 1 mM dATP; slope versus control (compound 1 = Caspase std.)
Experimental: Caspase3 in most cell extracts can be activated by the addition of 1 mM dATP through the mitochondria caspase pathway. […] Taking advantage of this feature, we use 100 nM of synthetic Smac mimetic compound to test its ability to eliminate IAPB in the Hela S100 and fully induce Caspase3 activity. The In Vitro Caspase3 assay is carried out at 30° C., incubating 100 nM compounds with 30 ug of Hela S100, 1 mM dATP, 10 uM Caspase3 fluorogenic substrate (Caspase3 Substrate II, Fluorogenic, #235425 from Calbiochem). The readout is caspase-3 activity represented by relative fluorogenic unit, which is recorded kinetically. The slope in linear region of the curve for each compound is calculated.
The ratio of each synthetic compound's slope versus the slope of control reflects in vitro caspase-3 activation ability of compounds.

HCC461 cells = assay: Cell viability assay in HCC461 cells (WST-1); assay type: cell-based; conditions: read-out: HCC461 cell
Experimental: HCC461 cells plated in 96 well plates at 5×10^4/ml cell density are treated with 50× synthetic Smac mimetic compounds (final concentration range between 30 uM and 0.001 uM). After 48 hrs incubation at 37° C. and 5% CO2, viability of the cells are measured using Cell Proliferation Reagent WST-1 assay kit (Roche Cat #11 644 807 001).
The tetrazolium salts are cleaved to formazan by cellular enzymes. An expansion in the number of viable cells results in an increase in the overall activity of mitochondrial dehydrogenases in the samples. This augmentation in the enzyme activity leads to an increase in the amount of formazan dye formed, which directly correlates to the number of metabolically active cells in the culture. Quantification of the formazan dye produced by metabolically active cells by using a microplate (ELISA) reader at 420-480 nm.

[2] = HCC461, 48 hrs incubation, WST-1 viability

T1 sequence (P98170 1-356 limits assumed): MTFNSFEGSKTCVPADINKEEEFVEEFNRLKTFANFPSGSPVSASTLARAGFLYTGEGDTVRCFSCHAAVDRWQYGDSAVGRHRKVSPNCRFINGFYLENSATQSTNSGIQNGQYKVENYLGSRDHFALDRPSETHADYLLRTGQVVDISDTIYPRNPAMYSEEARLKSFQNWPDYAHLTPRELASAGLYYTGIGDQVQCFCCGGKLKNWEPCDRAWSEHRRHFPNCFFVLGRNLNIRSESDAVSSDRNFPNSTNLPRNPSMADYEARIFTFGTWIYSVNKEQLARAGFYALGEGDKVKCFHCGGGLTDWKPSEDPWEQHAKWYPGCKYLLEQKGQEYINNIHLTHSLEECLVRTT

Row | SMILES | Bir binding [1] [µM] | Caspase % (Caspase3 in Hela S100) [%] | IC50 (HCC461 cells; [2]) [µM] | IC50 (HCC461 cells; HCC461, 48 h) [µM]
1 | CN[C@@H](C)C(=O)N[C@@H](Cc1nnn2c1-c1c(C[C@H](NC(=O)[C@H](C)NC)C(=O)N3CCC[C@H]3C(=O)N[C@@H]3CCCc4ccccc43)nnn1CC2)C(=O)N1CCCC1C(=O)N[C@@H]1CCCc2ccccc21.Cl.Cl (some centres unmarked) [Compound 21] | 1.13 | 70 | 2.2 | –
2 | CN[C@@H](C)C(=O)N[C@@H](CCCCNC(=O)NCCCC[C@H](NC(=O)[C@H](C)NC)C(=O)N1CCC[C@H]1C(=O)N[C@@H]1CCCc2ccccc21)C(=O)N1CCC[C@H]1C(=O)N[C@@H]1CCCc2ccccc21.Cl.Cl [Compound 48] | 0.2 | 103 | 0.056 | –
3 | CN[C@@H](C)C(=O)N[C@@H](CC#CC#CCO[C@H](C)[C@H](NC(=O)[C@H](C)NC)C(=O)N1CCCC1C(=O)N[C@@H]1CCCc2ccccc21)C(=O)N1CCCC1C(=O)N[C@@H]1CCCc2ccccc21.Cl.Cl (some centres unmarked) [Compound 13] | 0.188 | 105 | 0.07 | –
4 | CN[C@@H](C)C(=O)N[C@@H](Cc1ccc(OC/C=C\COc2ccc(C[C@H](NC(=O)[C@H](C)NC)C(=O)N3CCCC3C(=O)N[C@@H]3CCCc4ccccc43)cc2)cc1)C(=O)N1CCCC1C(=O)N[C@@H]1CCCc2ccccc21.Cl.Cl (some centres unmarked) [Compound 44] | 0.18 | 104 | 0.003 | –
5 | CN[C@@H](C)C(=O)N[C@@H](CC#CC#CC[C@H](NC(=O)[C@H](C)NC)C(=O)N1CCC[C@H]1C(=O)N[C@@H]1CCCc2ccccc21)C(=O)N1CCC[C@H]1C(=O)N[C@@H]1CCCc2ccccc21 [Compound 1] | 0.07 | 100 | – | 0.004
6 | CN[C@@H](C)C(=O)N[C@@H](CCCc1ccc(C[C@H](NC(=O)[C@H](C)NC)C(=O)N2CCC[C@H]2C(=O)N[C@@H]2CCCc3ccccc32)cc1)C(=O)N1CCC[C@H]1C(=O)N[C@@H]1CCCc2ccccc21.Cl.Cl [Compound 41] | 0.3 | 99 | 0.02 | –
7 | CC[C@H](NC)C(=O)N[C@@H](CCCCCC[C@H](NC(=O)[C@H](CC)NC)C(=O)N1CCC[C@H]1C(=O)N[C@@H]1CCCc2ccccc21)C(=O)N1CCC[C@H]1C(=O)N[C@@H]1CCCc2ccccc21 [Compound 10] | 0.2 | 105 | 0.02 | –
8 | CN[C@@H](C)C(=O)N[C@@H](Cc1cn(CCn2cc(C[C@H](NC(=O)[C@H](C)NC)C(=O)N3CCC[C@H]3C(=O)N[C@@H]3CCCc4ccccc43)nn2)nn1)C(=O)N1CCC[C@H]1C(=O)N[C@@H]1CCCc2ccccc21.Cl.Cl [Compound 20] | 0.18 | 99 | 0.52 | –
9 | CN[C@@H](C)C(=O)N[C@H](C(=O)N1CCC[C@H]1C(=O)N[C@@H]1CCCc2ccccc21)c1ccc(C#CCO[C@H](C)[C@H](NC(=O)[C@H](C)NC)C(=O)N2CCC[C@H]2C(=O)N[C@@H]2CCCc3ccccc32)cc1 [Compound 32] | 0.08 | 109 | 0.005 | –
10 | CN[C@@H](C)C(=O)N[C@@H](CCCCNC(=O)c1ccc(C(=O)NCCCC[C@H](NC(=O)[C@H](C)NC)C(=O)N2CCC[C@H]2C(=O)N[C@@H]2CCCc3ccccc32)cc1)C(=O)N1CCC[C@H]1C(=O)N[C@@H]1CCCc2ccccc21.Cl.Cl [Compound 49] | 0.19 | 113 | 0.02 | –
11 | CN[C@@H](C)C(=O)N[C@@H](Cc1ccc(C#CC[C@H](NC(=O)[C@H](C)NC)C(=O)N2CCC[C@H]2C(=O)N[C@@H]2CCCc3ccccc32)cc1)C(=O)N1CCC[C@H]1C(=O)NC1CCCc2ccccc21.Cl (some centres unmarked) [Compound 36] | 0.19 | 98 | 0.05 | –
12 | CN[C@@H](C)C(=O)N[C@H](C(=O)N1CCC[C@H]1C(=O)N[C@@H]1CCCc2ccccc21)[C@@H](C)OCc1nnn2c1-c1c(CO[C@H](C)[C@H](NC(=O)[C@H](C)NC)C(=O)N3CCC[C@H]3C(=O)N[C@@H]3CCCc4ccccc43)nnn1CC2.Cl.Cl [Compound 23] | 0.13 | 109 | 0.49 | –
13 | CN[C@@H](C)C(=O)N[C@H](C(=O)N1CCC[C@H]1C(=O)N[C@@H]1CCCc2ccccc21)[C@@H](C)OCC#CC=CCO[C@H](C)[C@H](NC(=O)[C@H](C)NC)C(=O)N1CCC[C@H]1C(=O)N[C@@H]1CCCc2ccccc21.Cl.Cl [Compound 11] | 0.172 | 94 | 0.012 | –
14 | CN[C@@H](C)C(=O)N[C@@H](Cc1nnn2c1-c1c(C[C@H](NC(=O)[C@H](C)NC)C(=O)N3CCC[C@H]3C(=O)N[C@@H]3CCCc4ccccc43)nnn1CCC2)C(=O)N1CCCC1C(=O)N[C@@H]1CCCc2ccccc21.Cl.Cl (some centres unmarked) [Compound 18] | 0.176 | 88 | 0.76 | –
15 | CN[C@@H](C)C(=O)N[C@H](C(=O)N1CCCC1)c1ccc(C#CCO[C@H](C)[C@H](NC(=O)[C@H](C)NC)C(=O)N2CCC[C@H]2C(=O)N[C@@H]2CCCc3ccccc32)cc1.Cl.Cl [Compound 40] | 0.15 | 85 | 0.03 | –
16 | CN[C@@H](C)C(=O)NC(C(=O)N[C@@H](Cc1cn(C/C=C\Cn2cc(C[C@H](NC(=O)[C@@H](NC(=O)[C@H](C)NC)C(C)(C)C)C(=O)N[C@@H]3CCCc4ccccc43)nn2)nn1)C(=O)N[C@@H]1CCCc2ccccc21)C(C)(C)C.Cl.Cl (some centres unmarked) [Compound 24] | 1.5 | 81 | 1.4 | –
17 | CN[C@@H](C)C(=O)N[C@H](C(=O)N1CCC[C@H]1C(=O)N[C@@H]1CCCc2ccccc21)[C@@H](C)OCc1nnn2c1-c1c(CO[C@H](C)[C@H](NC(=O)[C@H](C)NC)C(=O)N3CCC[C@H]3C(=O)N[C@@H]3CCCc4ccccc43)nnn1CCC2.Cl.Cl [Compound 19] | 0.14 | 98 | 0.24 | –
18 | CN[C@@H](C)C(=O)N[C@@H](CCCCNC(=O)c1cccc(C(=O)NCCCC[C@H](NC(=O)[C@H](C)NC)C(=O)N2CCC[C@H]2C(=O)N[C@@H]2CCCc3ccccc32)c1)C(=O)N1CCC[C@H]1C(=O)N[C@@H]1CCCc2ccccc21.Cl.Cl [Compound 47] | 0.19 | 99 | 0.02 | –
19 | CN[C@@H](C)C(=O)N[C@@H](CCCc1ccc([C@H](NC(=O)[C@H](C)NC)C(=O)N2CCC[C@H]2C(=O)N[C@@H]2CCCc3ccccc32)cc1)C(=O)N1CCC[C@H]1C(=O)N[C@@H]1CCCc2ccccc21 [Compound 28] | 0.2 | 102 | 0.07 | –
20 | CC[C@H](NC)C(=O)N[C@@H](CC#CC#CC[C@H](NC(=O)[C@H](C)NC)C(=O)N1CCC[C@H]1C(=O)N[C@@H]1CCCc2ccccc21)C(=O)N1CCC[C@H]1C(=O)N[C@@H]1CCCc2ccccc21.Cl.Cl [Compound 16] | 0.22 | 107 | 0.025 | –
21 | CN[C@@H](C)C(=O)N[C@H](C(=O)N1CCC[C@H]1C(=O)N[C@@H]1CCCc2ccccc21)[C@@H](C)OCc1cn(CCn2cc(CO[C@H](C)[C@H](NC(=O)[C@H](C)NC)C(=O)N3CCC[C@H]3C(=O)N[C@@H]3CCCc4ccccc43)nn2)nn1.Cl.Cl [Compound 22] | 0.13 | 106 | 0.81 | –
22 | CN[C@@H](C)C(=O)N[C@@H](CCCc1ccc([C@H](NC(=O)[C@H](C)NC)C(=O)N2CCC[C@H]2C(=O)N[C@@H]2CCCc3ccccc32)cc1)C(=O)N1CCC[C@H]1C(=O)N[C@@H]1CCCc2ccccc21.Cl.Cl [Compound 38] | 0.2 | 102 | – | –
23 | C=C(C#CCO[C@H](C)[C@H](NC(=O)[C@H](C)NC)C(=O)N1CCC[C@H]1C(=O)N[C@@H]1CCCc2ccccc21)CO[C@H](C)[C@H](NC(=O)[C@H](C)NC)C(=O)N1CCC[C@H]1C(=O)N[C@@H]1CCCc2ccccc21.Cl.Cl [Compound 42] | 0.2 | 109 | 0.24 | –
24 | CN[C@@H](C)C(=O)N[C@@H](CCCCNC(=O)CC(=O)NCCCC[C@H](NC(=O)[C@H](C)NC)C(=O)N1CCC[C@H]1C(=O)N[C@@H]1CCCc2ccccc21)C(=O)N1CCC[C@H]1C(=O)N[C@@H]1CCCc2ccccc21.Cl.Cl [Compound 50] | 0.2 | 97 | 0.02 | –

Reference: patent US8586542B2, “Small molecule apoptosis promoters” (Joyant Pharmaceuticals, Inc., priority 2006, dated 2013)
